Data taken from PMC9571594, “Development of Semisynthetic Apoptosis-Inducing Agents Based on Natural Phenolic Acids Scaffold: Design, Synthesis and In-Vitro Biological Evaluation” (Molecules, 2022).
Where two headings read alike, the source gives them in different places.

Assays:
[1] = system: HepG2 cells; assay: MTT cell viability assay, HepG2; format: cell-based, human
Protocol: (§1) MCF-7 cells (Human breast adenocarcinoma), HepG2 (human hepatocellular carcinoma), A549 (human lung adenocarcinoma), Caco-2 (colon carcinoma), PANC-1 (human pancreatic cancer), and Vero cells (derived from normal kidney cells) were supplied by (Holding Company for Biological Products and Vaccines VACSERA; Giza, Egypt). The cells were cultured in PRMI 1640 medium (Lonza, Switzerland) supplemented with 10% fetal bovine serum (Gibco), 1% penicillin and 1% streptomycin (Sigma Aldrich, Saint Louis, MO, USA) at 37 °C under an atmosphere of 5% CO2 and 95% air.
(§2) The effect of parent compounds and their derivatives were assessed by (3-(4,5-dimethylthiazol-2-yl)-2,5diphenyl-tetrazolium bromide) MTT assay. […] After a merged sheet of cells developed, the growth media was decanted from the 96-well microtiter and refilled with different concentrations of compounds (µg/mL), and the plate was incubated at 37 °C for 48 h to minimize exposure to the dissolving agent (Supporting Information).
(§3) MTT solution (BIO BASIC CANADA INC) was prepared [5 mg/mL in phosphate buffered saline (PBS)], added to each well and incubated for 4 h, then after removing the media, 200 μL of DMSO was added to each well to solubilize the formazan crystals and the optical density of the formazan product was measured at 560 nm using microplate reader (mindray, MR-96A). The results were calculated as the mean of the three independent experiments. […]
(§4) Determination of sample cytotoxicity on cells (MTT protocol) […]
(§5) well) and incubated at 37°C for 24 hours to develop a complete monolayer sheet.
(§6) 2- Growth medium was decanted from 96 well micro titer plates after confluent sheet of cells were formed, cell monolayer was washed twice with wash media.
(§7) 3- two-fold dilutions of tested sample was made in RPMI medium with 2% serum […]
(§8) 4- 0.1 ml of each dilution was tested in different wells leaving 3 wells as control, receiving only maintenance medium.
(§9) 5- Plate was incubated at 37°C and examined. Cells were checked for any physical signs of toxicity, e.g. partial or complete loss of the monolayer, rounding, shrinkage, […]
(§10) 6- MTT solution was prepared (5mg/ml in PBS) (BIO BASIC CANADA INC).
(§11) 8- 20ul MTT solution were added to each well. Place on a shaking table, 150rpm for 5 minutes, to thoroughly mix the MTT into the media.
(§12) 10) Dump off the media. (dry plate on paper towels to remove residue if necessary. […] 9 ش - ايلعلا هبضهلا - مطقملا / ىسيئرلا لمعملا […]

[2] = system: A549 cells; assay: MTT cell viability assay, A549; format: cell-based, human
Protocol: as §1, §2, §3, §4, §5, §6, §7, §8, §9, §10, §11, §12

[3] = system: Caco-2 cancer cell line; assay: MTT cell viability assay, Caco-2; format: cell-based
Protocol: as §1, §2, §3, §4, §5, §6, §7, §8, §9, §10, §11, §12

[4] = system: PANC-1 cells; assay: MTT cell viability assay, PANC-1; format: cell-based, human
Protocol: as §1, §2, §3, §4, §5, §6, §7, §8, §9, §10, §11, §12

[5] = system: Caco-2 cells; assay: Cell-cycle analysis by flow cytometry; format: cell-based; settings: Caco-2 cells; for %G0–G1 / %G2/M / %S: cell-cycle distribution after treatment; for %Pre-G1: Pre-G1 = apoptotic population
Protocol: The potential candidates with anti-tumor effect on the Caco-2 cell line along with a high SI were chosen for cell-cycle analysis. The cell-cycle distribution and cell death were analyzed using Annexin V-FITC/PI staining and flow cytometry (Table 4, Figure 4).
In order to determine the percentage of viable, apoptotic and necrotic cells after treatment with our compounds, double-staining with fluorescein isothiocyanate (FITC) and PI was performed. Annexin V-FITC Apoptosis Detection Kit (BioVision, CA, USA) was used. Briefly, cultured Caco-2 were treated with the tested compounds or DMSO for 24h. Cells were then collected by centrifugation at 2000 rpm for 5 min, and the pellet was washed with PBS then centrifuged again at 2000 rpm for 5 min then resuspended in 500μL of the kit’s binding buffer before adding the Annexin V-FITC and PI. The cells were then incubated at room temperature in the dark for 5 min. […]
Assay : Cell Cycle Analysis
Kit used : ab139418_Propidium Iodide Flow Cytometry Kit/BD
Assay samples :Cell culture
Cpd. No. Cpd. No. Cpd. No. Cpd. No.

[6] = system: Caco-2 cells; assay: Annexin V-FITC/PI apoptosis assay by flow cytometry; format: cell-based; set-up: key: % of cells; settings: annexin-V FITC/PI staining, 24h
Protocol: In order to determine the percentage of viable, apoptotic and necrotic cells after treatment with our compounds, double-staining with fluorescein isothiocyanate (FITC) and PI was performed. Annexin V-FITC Apoptosis Detection Kit (BioVision, CA, USA) was used. Briefly, cultured Caco-2 were treated with the tested compounds or DMSO for 24h. Cells were then collected by centrifugation at 2000 rpm for 5 min, and the pellet was washed with PBS then centrifuged again at 2000 rpm for 5 min then resuspended in 500μL of the kit’s binding buffer before adding the Annexin V-FITC and PI. The cells were then incubated at room temperature in the dark for 5 min. Annexin V-FITC binding was measured using FACS Calibur flow cytometer (BD biosciences, USA) (Ex = 488 nm, Em = 533 nm, FL1 filter for annexin and FL2 filter for PI).

Question: What does the source list for `O=C(O)/C=C/c1ccc(O)c(O)c1` [Compound 1, Caffeic acid]?
Answer: Toxicity % ([1]; HepG2, 15.625 ug/ml): 0.202%; Toxicity % ([1]; HepG2, 31.25 ug/ml): 0.101%; Toxicity % ([1]; HepG2, 62.5 ug/ml): 0.5051%; Toxicity % ([1]; HepG2, 125 ug/ml): 13.64%; Toxicity % ([1]; HepG2, 250 ug/ml): 72.12%; Toxicity % ([1]; HepG2, 500 ug/ml): 83.94%; IC50 ([1]; Homo sapiens, HepG2, MTT, 48 h, average of triplicates, read-out: IC50 (μM) ± SD HepG2): 1030 µM; viability at 15.625 µg/mL ([1]; Homo sapiens, HepG2, 15.625 ug/ml): 99.8%; viability at 31.25 µg/mL ([1]; Homo sapiens, HepG2, 31.25 ug/ml): 99.9%; viability at 62.5 µg/mL ([1]; Homo sapiens, HepG2, 62.5 ug/ml): 99.5%; viability at 125 µg/mL ([1]; Homo sapiens, HepG2, 125 ug/ml): 86.4%; viability at 250 µg/mL ([1]; Homo sapiens, HepG2, 250 ug/ml): 27.9%; viability at 500 µg/mL ([1]; Homo sapiens, HepG2, 500 ug/ml): 16.1%; IC50 ([1]; Homo sapiens, HepG2, MTT report T-4-019-5, Conc. ug/ml, read-out: IC50): 201 µg/mL; Toxicity % ([2]; A549, 15.625 ug/ml): 0.7435%; Toxicity % ([2]; A549, 31.25 ug/ml): 0.1239%; Toxicity % ([2]; A549, 62.5 ug/ml): 0.9913%; Toxicity % ([2]; A549, 125 ug/ml): 3.841%; Toxicity % ([2]; A549, 250 ug/ml): 52.91%; Toxicity % ([2]; A549, 500 ug/ml): 78.56%; IC50 ([2]; Homo sapiens, A549, MTT, 48 h, average of triplicates, read-out: IC50 (μM) ± SD A549): 1630 µM; viability at 15.625 µg/mL ([2]; Homo sapiens, A549, 15.625 ug/ml): 99.3%; viability at 31.25 µg/mL ([2]; Homo sapiens, A549, 31.25 ug/ml): 99.9%; viability at 62.5 µg/mL ([2]; Homo sapiens, A549, 62.5 ug/ml): 99%; viability at 125 µg/mL ([2]; Homo sapiens, A549, 125 ug/ml): 96.2%; viability at 250 µg/mL ([2]; Homo sapiens, A549, 250 ug/ml): 47.1%; viability at 500 µg/mL ([2]; Homo sapiens, A549, 500 ug/ml): 21.4%; IC50 ([2]; Homo sapiens, A549, MTT report T-4-019-5, Conc. ug/ml, read-out: IC50): 317 µg/mL; Toxicity % ([3]; Caco2, 15.625 ug/ml): 0.09606%; Toxicity % ([3]; Caco2, 31.25 ug/ml): 10.47%; Toxicity % ([3]; Caco2, 62.5 ug/ml): 52.83%; Toxicity % ([3]; Caco2, 125 ug/ml): 74.26%; Toxicity % ([3]; Caco2, 250 ug/ml): 79.92%; Toxicity % ([3]; Caco2, 500 ug/ml): 88.09%; viability at 15.625 µg/mL ([3]; Homo sapiens, Caco-2, Caco2, 15.625 ug/ml): 99.9%; viability at 31.25 µg/mL ([3]; Homo sapiens, Caco-2, Caco2, 31.25 ug/ml): 89.5%; viability at 62.5 µg/mL ([3]; Homo sapiens, Caco-2, Caco2, 62.5 ug/ml): 47.2%; viability at 125 µg/mL ([3]; Homo sapiens, Caco-2, Caco2, 125 ug/ml): 25.7%; viability at 250 µg/mL ([3]; Homo sapiens, Caco-2, Caco2, 250 ug/ml): 20.1%; viability at 500 µg/mL ([3]; Homo sapiens, Caco-2, Caco2, 500 ug/ml): 11.9%; IC50 ([3]; Homo sapiens, Caco-2, Caco2, MTT report T-4-019-5, Conc. ug/ml, read-out: IC50): 81.2 µg/mL; IC50 ([3]; Homo sapiens, Caco-2, MTT, 48 h, average of triplicates, parent compounds and doxorubicin (Table 2), read-out: IC50 (μM) ± SD Caco-2): 410 µM; IC50 ([4]; Homo sapiens, PANC-1, MTT, 48 h, average of triplicates, read-out: IC50 (μM) ± SD PANC-1): 1290 µM; viability at 15.625 µg/mL ([4]; Homo sapiens, PANC-1, Panc1, 15.625 ug/ml): 100%; viability at 31.25 µg/mL ([4]; Homo sapiens, PANC-1, Panc1, 31.25 ug/ml): 101%; viability at 62.5 µg/mL ([4]; Homo sapiens, PANC-1, Panc1, 62.5 ug/ml): 99.8%; viability at 125 µg/mL ([4]; Homo sapiens, PANC-1, Panc1, 125 ug/ml): 91.8%; viability at 250 µg/mL ([4]; Homo sapiens, PANC-1, Panc1, 250 ug/ml): 48.3%; viability at 500 µg/mL ([4]; Homo sapiens, PANC-1, Panc1, 500 ug/ml): 29.7%; IC50 ([4]; Homo sapiens, PANC-1, Panc1, MTT report T-4-019-5, Conc. ug/ml, read-out: IC50): 251 µg/mL; Toxicity % ([4]; Panc1, 15.625 ug/ml): 0%; Toxicity % ([4]; Panc1, 31.25 ug/ml): 0%; Toxicity % ([4]; Panc1, 62.5 ug/ml): 0.1812%; Toxicity % ([4]; Panc1, 125 ug/ml): 8.243%; Toxicity % ([4]; Panc1, 250 ug/ml): 51.72%; Toxicity % ([4]; Panc1, 500 ug/ml): 70.29%; %G0–G1 [5]: 46.29 ± 3.1%; %G2/M [5]: 20.49 ± 1.92%; %S [5]: 33.22 ± 1.99%; %G0–G1 ([5]; listed as s1): 46.29%; %G2/M ([5]; listed as s1): 20.49%; %S ([5]; listed as s1): 33.22%; %Pre-G1 [5]: 11.31 ± 0.81%; %Pre-G1 ([5]; listed as caffeic acid): 11.31%; Apoptosis Total [6]: 11.31; Early Apoptosis [6]: 3.41; Late Apoptosis [6]: 5.98; Necrosis [6]: 1.92
